Test results reported in patent US20240376163A1, “PEPTIDE FOR INHIBITING CALCINEURIN AND USE THEREOF” (Seoul National University R&DB Foundation, priority 2023, published 2024).

Tested on: Jurkat T cells
Experiment: mRNA sequencing of activated Jurkat T cells
Format: cell-based, human
Details: Jurkat T cells, P + I

C=CC[C@@H]1/C=C(\C)C[C@H](C)C[C@H](OC)[C@H]2O[C@@](O)(C(=O)C(=O)N3CCCC[C@H]3C(=O)O[C@H](/C(C)=C/[C@@H]3CC[C@@H](O)[C@H](OC)C3)[C@H](C)[C@@H](O)CC1=O)[C@H](C)C[C@@H]2OC [FK506, Tacrolimus, reference compound]
ABTB2 FPKM: 2.549 FPKM
ACAP1 FPKM: 35.261 FPKM
ACSF3 FPKM: 22.755 FPKM
ADA FPKM: 74.531 FPKM
ADAMTS17 FPKM: 0.843 FPKM
ADCYAP1 FPKM: 3.646 FPKM
ADORA2A FPKM: 0.998 FPKM
AFF2 FPKM: 4.374 FPKM
AGK FPKM: 14.029 FPKM
ALDH1A2 FPKM: 7.041 FPKM
ALOX5AP FPKM: 92.971 FPKM
ANKEF1 FPKM: 3.081 FPKM
ANO8 FPKM: 3.26 FPKM
ANTXR2 FPKM: 53.159 FPKM
APH1B FPKM: 5.12 FPKM
APOBEC3B-AS1 FPKM: 13.251 FPKM
APOBEC3F FPKM: 5.861 FPKM
APOBEC3G FPKM: 8.803 FPKM
APOL1 FPKM: 4.036 FPKM
ARHGAP4 FPKM: 15.97 FPKM
ARHGAP25 FPKM: 3.447 FPKM
ARHGAP31 FPKM: 10.889 FPKM
ARHGEF3 FPKM: 8.637 FPKM
ARPP21 FPKM: 1.29 FPKM
ASB13 FPKM: 2.277 FPKM
ASNS FPKM: 20.436 FPKM
ATHL1 FPKM: 4.597 FPKM
ATP2A3 FPKM: 47.81 FPKM
ATP6V0A4 FPKM: 21.385 FPKM
ATP6V1B2 FPKM: 50.672 FPKM
ATPAF1 FPKM: 11.764 FPKM
AVPR2 FPKM: 1.21 FPKM
B2M FPKM: 1155.981 FPKM
BAHCC1 FPKM: 1 FPKM
BCL2A1 FPKM: 21.118 FPKM
BCL2L1 FPKM: 39.402 FPKM
BCL3 FPKM: 14.57 FPKM
BCL6 FPKM: 15.181 FPKM
BCL7A FPKM: 12.185 FPKM
BCL11B FPKM: 3.688 FPKM
BEND6 FPKM: 1.416 FPKM
BIN1 FPKM: 2.374 FPKM
BIRC3 FPKM: 30.767 FPKM
C10orf55 FPKM: 7.632 FPKM
C11orf74 FPKM: 0.365 FPKM
C21orf58 FPKM: 5.847 FPKM
CABP1 FPKM: 1.201 FPKM
CAMK2D FPKM: 5.855 FPKM
CARHSP1 FPKM: 20.082 FPKM
CBFA2T3 FPKM: 12.236 FPKM
CBLB FPKM: 8.881 FPKM
CBS FPKM: 3.935 FPKM
CBX2 FPKM: 2.786 FPKM
CCDC15 FPKM: 3.535 FPKM
CCL3 FPKM: 0 FPKM
CCL3L3 FPKM: 0 FPKM
CCL20 FPKM: 0 FPKM
CCND3 FPKM: 30.402 FPKM
CCNE2 FPKM: 6.298 FPKM
CD1B FPKM: 4.115 FPKM
CD1E FPKM: 4.975 FPKM
CD70 FPKM: 3.005 FPKM
CD82 FPKM: 171.933 FPKM
CD97 FPKM: 19.394 FPKM
CD200 FPKM: 0 FPKM
CD274 FPKM: 7.13 FPKM
CDKN1A FPKM: 39.264 FPKM
CDKN2D FPKM: 17.642 FPKM
CECR1 FPKM: 5.304 FPKM
CENPM FPKM: 13.201 FPKM
CEP70 FPKM: 14.887 FPKM
CERKL FPKM: 13.458 FPKM
CFLAR FPKM: 3.438 FPKM
CHEK2 FPKM: 8.907 FPKM
CHPF2 FPKM: 36.42 FPKM
CHPF FPKM: 9.759 FPKM
CHRNA3 FPKM: 4.293 FPKM
CHST12 FPKM: 13.527 FPKM
CNN2 FPKM: 30.77 FPKM
COL27A1 FPKM: 4.463 FPKM
CPD FPKM: 23.208 FPKM
CREB3L2 FPKM: 5.62 FPKM
CREB5 FPKM: 0.577 FPKM
CSF1 FPKM: 1.706 FPKM
CSF2 FPKM: 0 FPKM
CXCL8 FPKM: 0.937 FPKM
CXCL11 FPKM: 0.695 FPKM
CXCR4 FPKM: 38.979 FPKM
CYTH1 FPKM: 33.17 FPKM
DBP FPKM: 2.396 FPKM
DCBLD2 FPKM: 13.786 FPKM
DENND5A FPKM: 24.792 FPKM
DNAJB5 FPKM: 19.238 FPKM
DSTYK FPKM: 3.501 FPKM
DTL FPKM: 5.862 FPKM
DTX1 FPKM: 4.414 FPKM
DUSP6 FPKM: 9.728 FPKM
DUSP10 FPKM: 11.981 FPKM
E2F7 FPKM: 4.531 FPKM
ECE1 FPKM: 20.046 FPKM
EFHD2 FPKM: 180.233 FPKM
EGR1 FPKM: 218.444 FPKM
EGR2 FPKM: 11.435 FPKM
EHBP1L1 FPKM: 7.073 FPKM
EMP1 FPKM: 4.613 FPKM
ETS1 FPKM: 50.032 FPKM
FADS2 FPKM: 67.903 FPKM
FAM64A FPKM: 7.456 FPKM
FAT1 FPKM: 13.036 FPKM
FBLN2 FPKM: 3.348 FPKM
FKBP5 FPKM: 8.687 FPKM
FLI1 FPKM: 13.241 FPKM
FOSL1 FPKM: 10.499 FPKM
FOSL2 FPKM: 2.204 FPKM
FXYD5 FPKM: 41.346 FPKM
FYN FPKM: 16.523 FPKM
GAD1 FPKM: 2.246 FPKM
GFOD1 FPKM: 4.187 FPKM
GFRA1 FPKM: 0.991 FPKM
GKAP1 FPKM: 2.692 FPKM
GLRB FPKM: 1.62 FPKM
GLRX FPKM: 25.315 FPKM
GNG4 FPKM: 5.365 FPKM
GPC2 FPKM: 5.785 FPKM
GPR17 FPKM: 0.258 FPKM
GPR68 FPKM: 8.916 FPKM
GSE1 FPKM: 17.37 FPKM
GTDC1 FPKM: 4.629 FPKM
GXYLT2 FPKM: 5.443 FPKM
GZMB FPKM: 513.528 FPKM
HCAR1 FPKM: 7.167 FPKM
HIVEP3 FPKM: 20.041 FPKM
HLA-A FPKM: 181.069 FPKM
HLA-B FPKM: 116.079 FPKM
HPGD FPKM: 6.064 FPKM
IFIT3 FPKM: 6.495 FPKM
IKZF2 FPKM: 8.561 FPKM
IL2 FPKM: 0.287 FPKM
IL4R FPKM: 9.842 FPKM
IL10RA FPKM: 2.828 FPKM
IL15 FPKM: 2.654 FPKM
IL15RA FPKM: 5.979 FPKM
IL21R FPKM: 2.244 FPKM
IL21R-AS1 FPKM: 1.927 FPKM
IL27RA FPKM: 10.817 FPKM
IQCJ-SCHIP1 FPKM: 1.657 FPKM
IQGAP2 FPKM: 4.857 FPKM
IRF1 FPKM: 141.607 FPKM
IRF2 FPKM: 34.99 FPKM
IRF4 FPKM: 0.423 FPKM
IRF7 FPKM: 21.167 FPKM
ITGA4 FPKM: 39.099 FPKM
ITGAL FPKM: 10.212 FPKM
ITK FPKM: 58.558 FPKM
JAK2 FPKM: 5.248 FPKM
KCNK1 FPKM: 10.967 FPKM
KIAA0101 FPKM: 21.727 FPKM
KIAA0247 FPKM: 8.032 FPKM
KIR3DX1 FPKM: 3.048 FPKM
KLF10 FPKM: 25.627 FPKM
KLF12 FPKM: 6.506 FPKM
KREMEN1 FPKM: 3.122 FPKM
LAIR1 FPKM: 8.298 FPKM
LDLRAD4 FPKM: 6.21 FPKM
LEF1-AS1 FPKM: 3.747 FPKM
LEF1 FPKM: 74.102 FPKM
LGMN FPKM: 1.42 FPKM
LIF FPKM: 0.143 FPKM
LIMS2 FPKM: 4.122 FPKM
LINC00659 FPKM: 10.239 FPKM
LINC01260 FPKM: 7.672 FPKM
LMNA FPKM: 4.62 FPKM
LMO1 FPKM: 1.094 FPKM
LOC653712 FPKM: 4.163 FPKM
LOC100506688 FPKM: 1.625 FPKM
LOC101926963 FPKM: 4.541 FPKM
LOC101927497 FPKM: 9.413 FPKM
LPAR6 FPKM: 8.449 FPKM
LRRC8C FPKM: 10.058 FPKM
LRRC20 FPKM: 3.843 FPKM
LTBP4 FPKM: 8.427 FPKM
LUCATI FPKM: 12.516 FPKM
MAFF FPKM: 16.977 FPKM
MAGEA4 FPKM: 3.908 FPKM
MAL FPKM: 2.664 FPKM
MAMLD1 FPKM: 5.995 FPKM
MAP3K7CL FPKM: 2.247 FPKM
MAST4 FPKM: 3.498 FPKM
MAZ FPKM: 112.102 FPKM
MCM2 FPKM: 22.07 FPKM
MCTP2 FPKM: 5.326 FPKM
METRN FPKM: 1.779 FPKM
MFAP4 FPKM: 0.663 FPKM
MGAT4A FPKM: 8.906 FPKM
MICAL2 FPKM: 1.763 FPKM
MIR22HG FPKM: 9.248 FPKM
MIR3652 FPKM: 547.182 FPKM
MIR6775 FPKM: 19.643 FPKM
MIR6821 FPKM: 13.626 FPKM
